The text below walks through data of paper PMC3846293 (Bioorganic & medicinal chemistry letters, 2013).

One data set concerns the target rat mGlu5 (Rattus norvegicus, UniProt P31424). In words: Calcium mobilization mGlu5 assay. The format is cell-based. To be noted: for mGlu5 pIC50 (± SEM) / IC50: HEK293A cells expressing rat mGlu5, EC80 glutamate; for mGlu5 pIC50 (± SEM): average of n ≥ 3; for IC50: read-out: mGlu5 IC50.
Data set [1] deals with marble burying. To be noted: mice; ref 7a,d; cited from earlier work.
For data set [2] the following is noted: prior PK studies in rats; cited from earlier work.
Data set [3] has as its system marble burying. In words: Mouse marble burying model of anxiety. To be noted: IP dosing, 15 minute pretreatment; all doses greater than or equal to 3 mg/kg; n = 8 per dose; P < 0.001 vs. vehicle.
The test system of data set [4] is panel of 68 clinically relevant GPCRs, ion channels, kinases, and transporters. In words: Radioligand binding assay panel. To be noted: 10 μM compound; significant = more than 50% inhibition of radioligand binding.

The structures appear in SMILES notation. Marks after values point to notes of the source that are not given here.

rat mGlu5, sequence (P31424 21-1203): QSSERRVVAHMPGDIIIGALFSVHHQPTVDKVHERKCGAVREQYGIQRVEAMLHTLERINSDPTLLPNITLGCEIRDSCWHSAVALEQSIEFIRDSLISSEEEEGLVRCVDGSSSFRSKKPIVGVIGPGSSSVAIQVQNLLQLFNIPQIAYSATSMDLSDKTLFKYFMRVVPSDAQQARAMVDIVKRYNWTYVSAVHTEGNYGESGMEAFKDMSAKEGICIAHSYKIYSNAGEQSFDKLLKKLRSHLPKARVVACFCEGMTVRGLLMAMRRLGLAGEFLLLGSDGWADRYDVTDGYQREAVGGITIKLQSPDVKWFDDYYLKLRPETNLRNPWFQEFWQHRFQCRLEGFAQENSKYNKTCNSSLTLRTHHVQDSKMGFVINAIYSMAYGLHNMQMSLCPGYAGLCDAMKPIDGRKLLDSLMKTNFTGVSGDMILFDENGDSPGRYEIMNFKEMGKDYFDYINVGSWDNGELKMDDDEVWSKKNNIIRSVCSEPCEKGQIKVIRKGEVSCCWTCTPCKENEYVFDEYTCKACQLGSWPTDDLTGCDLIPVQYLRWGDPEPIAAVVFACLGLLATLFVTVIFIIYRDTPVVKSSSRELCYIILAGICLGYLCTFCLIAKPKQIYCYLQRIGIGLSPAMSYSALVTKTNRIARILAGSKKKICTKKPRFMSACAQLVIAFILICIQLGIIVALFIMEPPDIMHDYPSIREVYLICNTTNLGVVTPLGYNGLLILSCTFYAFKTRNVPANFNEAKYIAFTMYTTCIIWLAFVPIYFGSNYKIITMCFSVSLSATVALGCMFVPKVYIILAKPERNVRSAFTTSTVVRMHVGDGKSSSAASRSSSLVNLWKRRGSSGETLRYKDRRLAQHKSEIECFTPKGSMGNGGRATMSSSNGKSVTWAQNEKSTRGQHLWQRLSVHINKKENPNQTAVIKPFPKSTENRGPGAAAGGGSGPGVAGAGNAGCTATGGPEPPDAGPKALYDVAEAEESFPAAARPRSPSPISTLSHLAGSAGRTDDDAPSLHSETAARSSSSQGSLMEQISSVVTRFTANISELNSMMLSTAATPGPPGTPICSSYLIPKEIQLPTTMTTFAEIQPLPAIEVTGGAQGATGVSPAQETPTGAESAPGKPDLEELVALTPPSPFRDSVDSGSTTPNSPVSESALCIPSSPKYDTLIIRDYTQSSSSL

In the case of `Cc1nsc(NC(=O)c2cccc(Oc3cccnc3)c2)n1` [Compound 19], on rat mGlu5, the “mGlu5 pIC50 (± SEM)” value is given as < 4.5 and the half-maximal inhibitory concentration (IC50) was > 30 µM.
As to `CCCc1csc(NC(=O)c2cc(Cl)cc(Oc3cncnc3)c2)n1` [Compound 38], at rat mGlu5 (mGlu5 potency vs 25), the “fold loss of potency compared to 25” value came out at 7 fold.
As for `O=C(Nc1cccc(Cl)c1)c1cccc(Oc2cccnc2)c1` [Compound 3], at rat mGlu5 (mGlu5 potency vs 2), the “fold less potent than 2” value is given as “more than 20 fold”.
Consider `CN1CC(=O)NC1=NC(=O)Nc1cccc(Cl)c1` [fenobam], for which the “efficacy in marble burying model” value in the data set with marble burying [1] was “effective”.
Regarding `Cc1csc(NC(=O)c2cc(F)cc(Oc3cncnc3)c2)n1` [Compound 24], the clearance in rats result in data set [2] is given as “moderate to high clearance”. In the data set on marble burying [3], the “inhibition of marble burying” value is “Statistically significant inhibition”. Besides, the “responses in radioligand binding panel of 68 targets” value in data set [4] was “no significant responses”.
`O=C(Nc1ccncn1)c1cccc(Oc2cccnc2)c1` [Compound 11]: at rat mGlu5, the “mGlu5 pIC50 (± SEM)” value is < 5.0 ^c and the IC50 is > 10 µM.
For the molecule `Cc1cccc(C#Cc2ccccc2)n1` [MPEP], in the data set on marble burying [1], the “efficacy in marble burying model” value is “effective”.
Turning to `CCCc1csc(NC(=O)c2cc(F)cc(Oc3cncnc3)c2)n1` [Compound 33], at rat mGlu5 (mGlu5 potency vs 24), the “fold loss of potency compared to 24” value stood at 10 fold.
Regarding `Cc1ncc(Oc2cc(Cl)cc(C(=O)Nc3ccc(F)cn3)c2)cn1` [Compound 75], the “fold loss of potency vs. 28” value on rat mGlu5 (mGlu5 potency vs 28) is listed as > 100 fold.
Turning to `Cc1cccc(NC(=O)c2cc(Cl)cc(Oc3cnc(C)nc3)c2)n1` [Compound 76], the “fold decrease in potency vs. 66” value at rat mGlu5 (mGlu5 potency vs 66) was determined as 5 fold.
Regarding `O=C(Nc1nc(C(F)(F)F)cs1)c1cccc(Oc2cccnc2)c1` [Compound 20], on rat mGlu5, the “mGlu5 pIC50 (± SEM)” value was < 4.5 and the IC50 was > 30 µM.
